By TGI is commonly meant the concentration giving total growth inhibition. Higher therefore signals lower sensitivity of the cells.

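Dose response: 5 concentrations. Exposure: 48 h. Format: 96-well plates. Endpoint: linear interpolation; highest concentration if not reached. TGI is the concentration that stops growth completely.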 A value given as a limit tells only on which side of the number the result lay.

Test systems include ACHN renal; DLD-1 colon; HOP-18 NSCLC; HOP-62 NSCLC; KM20L2 colon; LOX IMVI melanoma; SK-MEL-5 melanoma.
Common to all, as to experiment: DTP human tumour cell line panel, 48 h

As to `COC1C(OC(=S)Nc2ccccc2)c2ccccc2N1C(C)=O` (stereo not given), the TGI with ACHN renal, with DLD-1 colon, in the experiment on HOP-18 NSCLC, in the experiment on HOP-62 NSCLC and in the experiment with KM20L2 colon was above 100 µM in each case.

In the case of `CC12CCC(=O)C[C@H]1CCC(OC=O)C2Br` (stereo not given in full), the concentration for total growth inhibition (TGI) in the experiment with ACHN renal, with DLD-1 colon, in the experiment on HOP-18 NSCLC, in the experiment on HOP-62 NSCLC, in the experiment with KM20L2 colon and in the experiment on LOX IMVI melanoma was above 100 µM in each case. In addition, the concentration for total growth inhibition (TGI) in the experiment on SK-MEL-5 melanoma was above 100 µM.

For the molecule `Cc1cc2c(=O)c3ccccc3[nH]c2c(C(N)=O)c1C`, the total growth inhibition concentration (TGI) in the experiment on ACHN renal, with DLD-1 colon, with HOP-18 NSCLC, with KM20L2 colon, with LOX IMVI melanoma and with SK-MEL-5 melanoma was above 100 µM in each case.

As to `COc1c(O)c2c(=O)cc3c4c5c(cc(=O)c6c(O)c(OC)c(CC(C)O)c(c(c1CC(C)O)c24)c65)OCO3` (stereo not given), the TGI came out at 5.96 µM with ACHN renal; 8.39 µM in the experiment on DLD-1 colon; 8.3 µM with HOP-18 NSCLC; 4.01 µM in the experiment on HOP-62 NSCLC; 1.69 µM with KM20L2 colon; 2.28 µM with LOX IMVI melanoma. The same molecule displayed a TGI in the experiment with SK-MEL-5 melanoma of 2.94 µM.

As to `CSc1nc(SC)c2c(C#N)[nH]nc2n1`, the TGI in the experiment on ACHN renal, with DLD-1 colon, in the experiment on HOP-62 NSCLC, in the experiment with KM20L2 colon, in the experiment on LOX IMVI melanoma and in the experiment with SK-MEL-5 melanoma was above 100 µM throughout.

Take `COc1ccc(OCC(=O)O)c2c1CCCC2=O`: the TGI in the experiment with ACHN renal, in the experiment on DLD-1 colon, with HOP-62 NSCLC, with LOX IMVI melanoma and in the experiment on SK-MEL-5 melanoma was above 100 µM each time.

For `CC(C)(C)c1cc(C(P(=O)(O)O)P(=O)(O)O)cc(C(C)(C)C)c1O`, the TGI with ACHN renal, in the experiment with DLD-1 colon, in the experiment with HOP-18 NSCLC, in the experiment on HOP-62 NSCLC, with KM20L2 colon and with LOX IMVI melanoma was above 100 µM throughout. In the experiment with SK-MEL-5 melanoma, this molecule came in with a TGI above 100 µM.

In the case of `COC(=O)/C(C#N)=C1\N=NNN1c1ccc(OC)cc1`, the TGI in the experiment with ACHN renal, in the experiment with DLD-1 colon, in the experiment on HOP-18 NSCLC, in the experiment on LOX IMVI melanoma and in the experiment with SK-MEL-5 melanoma was above 100 µM each time.

On to `O=C(/C(=C/c1ccc(Cl)cc1)c1ccccc1)c1ccccc1`, for which the total growth inhibition concentration (TGI) in the experiment with ACHN renal was determined as 39.5 µM; in the experiment with DLD-1 colon it was 31.8 µM; in the experiment with HOP-18 NSCLC it was 62.3 µM; in the experiment with HOP-62 NSCLC, 57.5 µM; in the experiment with LOX IMVI melanoma it was 29 µM.

As to `CC(C)C1=Cc2ccc3c(c2C(=O)C1=O)CCCC3(C)C`, the TGI in the experiment with ACHN renal was determined as 13 µM; in the experiment with DLD-1 colon it was 5.08 µM; with HOP-18 NSCLC, 6.27 µM; in the experiment on HOP-62 NSCLC, 37 µM; with KM20L2 colon, 42.7 µM; in the experiment on LOX IMVI melanoma, 24.7 µM. The molecule also registered a TGI in the experiment with SK-MEL-5 melanoma of 24.9 µM.

For the molecule `COCC(OC)C(CC=C(C#N)C#N)OC` (stereo not given), the TGI in the experiment on ACHN renal, in the experiment on HOP-62 NSCLC, with KM20L2 colon, in the experiment with LOX IMVI melanoma and with SK-MEL-5 melanoma was above 100 µM throughout.

On to `COC(=O)/C(=N\NC(N)=S)C(C(=O)OC)C(=O)C(=O)Nc1ccc(C)cc1` (stereo not given), for which the TGI with ACHN renal, with DLD-1 colon, in the experiment with HOP-18 NSCLC, in the experiment with HOP-62 NSCLC, in the experiment on KM20L2 colon and in the experiment with LOX IMVI melanoma was above 100 µM throughout. For the same molecule, the TGI in the experiment on SK-MEL-5 melanoma was above 100 µM.

As for `CCCCCCCCCCCCCCCC(=O)OCCOCCOCCOCc1ccccc1`, the concentration for total growth inhibition (TGI) in the experiment on ACHN renal, in the experiment with DLD-1 colon, in the experiment on HOP-18 NSCLC, in the experiment on HOP-62 NSCLC, with LOX IMVI melanoma and in the experiment with SK-MEL-5 melanoma was above 100 µM each time.

`COC(=O)C(=Cc1cc(OC)c(OC)c(OC)c1-c1cc2c(cc1C1(C)OCCS1)OCO2)C(=O)OC` (stereo not given): the concentration for total growth inhibition (TGI) in the experiment on ACHN renal, with DLD-1 colon, in the experiment on HOP-62 NSCLC, with KM20L2 colon, with LOX IMVI melanoma and in the experiment on SK-MEL-5 melanoma was above 100 µM throughout.

As to `O=C(OC1CCC(=C2SCCCS2)[C@H]1C1SCCCS1)c1ccccc1` (stereo not given in full), the TGI in the experiment with ACHN renal, in the experiment on DLD-1 colon, in the experiment on HOP-62 NSCLC, with KM20L2 colon and with LOX IMVI melanoma was above 100 µM each time.

With `O=C(CC1C(=O)Nc2ccccc2S1=O)Nc1cc(Cl)ccc1Cl` (stereo not given), the TGI in the experiment on ACHN renal, with DLD-1 colon, with KM20L2 colon, in the experiment with LOX IMVI melanoma and in the experiment with SK-MEL-5 melanoma was above 100 µM each time.

Take `COC(=O)C1CCCC2(C1)OCCO2` (stereo not given): the TGI with ACHN renal, with DLD-1 colon, with HOP-18 NSCLC, in the experiment with HOP-62 NSCLC, in the experiment with KM20L2 colon and in the experiment with LOX IMVI melanoma was above 100 µM throughout. Moreover, in the experiment on SK-MEL-5 melanoma, the TGI was above 100 µM.

On to `CN1CCC(=O)/C(=C/c2ccccc2)C1`, for which the TGI was 32.4 µM with ACHN renal; 12.5 µM in the experiment on DLD-1 colon; 32.2 µM in the experiment with HOP-18 NSCLC; 40.2 µM with HOP-62 NSCLC; 26.6 µM in the experiment on KM20L2 colon; 14.6 µM in the experiment on LOX IMVI melanoma. In the experiment on SK-MEL-5 melanoma, the TGI is 33.4 µM.

As for `O=[N+]([O-])c1ccc2occ3c2c1CCC3`, the TGI in the experiment with ACHN renal, in the experiment on DLD-1 colon, in the experiment on HOP-62 NSCLC, in the experiment with LOX IMVI melanoma and in the experiment with SK-MEL-5 melanoma was above 100 µM throughout.

As to `C=CCCCCC1CCC2CCC(CCCCC=C)N12` (stereo not given), the TGI in the experiment on ACHN renal was 28.5 µM; with HOP-18 NSCLC it was 60.9 µM; in the experiment on HOP-62 NSCLC, 33 µM; in the experiment on KM20L2 colon, 25.7 µM; with SK-MEL-5 melanoma, 26.9 µM.

For `COc1ccc(CCN(C)C2CCC(C#N)(c3ccc(OC)c(OC)c3)CC2)cc1OC` (stereo not given), the TGI in the experiment on ACHN renal, in the experiment with DLD-1 colon, in the experiment with HOP-18 NSCLC, in the experiment with HOP-62 NSCLC, with KM20L2 colon and with LOX IMVI melanoma was above 100 µM throughout. Also, in the experiment with SK-MEL-5 melanoma, the TGI is above 100 µM.

Values taken from PubChem BioAssay (NCI).
